Each structure is given as a SMILES string. Square brackets hold non-standard residues; d marks the D form. Peptide text beside a SMILES is read from it.

Experiment [1] has as its system recombinant JNK1, JNK2 and JNK3. Kind of experiment: Solid phase kinase assay: JNK-mediated phosphorylation of c-Jun, ATF2 and Elk1. The experiment is classed as biochemical. The conditions noted are these: GST-Jun (aa 1-73), 0-250 μM dosage study; fold less efficient. The procedure: The effects of the peptides on JNKs-mediated phosphorylation of their target transcription factors were investigated in vitro. Recombinant and non activated JNK1, JNK2 and JNK3 were produced using a TRANSCRIPTION AND TRANSLATION rabbit reticulocyte lysate kit (PROMEGA®) and used in solid phase kinase assays with c-jun, ATF2 and Elk1, either alone or fused to glutathione-S-transferase (GST), as substrates. Dose response studies were performed wherein inventive L-TAT or L-TAT-IB1(s) peptides (0-25 μM) were mixed with the recombinant JNK1, JNK2, or JNK3 kinases in reaction buffer (20 mM Tris-acetate, 1 mM EGTA, 10 mM p-nitrophenyl-phosphate (pNPP), 5 mM sodium pyrophosphate, 10 mM p-glycerophosphate, 1 mM dithiothreitol) for 20 minutes. The kinase reactions were then initiated by the addition of 10 mM MgCl2 and 5 pCi^33P-γ-dATP and 1 μg of either GST-Jun (aa 1-89), GST-AFT2 (aa 1-96) or GST-ELK1 (aa 307-428). GST-fusion proteins were purchased from Stratagene (La Jolla, Calif.).
Ten μL of glutathione-agarose beads were also added to the mixture. Reaction products were then separated by SDS-PAGE on a denaturing 10% polyacrylamide gel. Gels were dried and subsequently exposed to X-ray films (Kodak).
The ability of D-TAT, inventive D-TAT-IB1(s) and inventive L-TAT-IB1 (s) peptides (0-250 μM dosage study) to inhibit GST-Jun (aa 1-73) phosphorylation by recombinant JNK1, JNK2, and JNK3 by were analyzed as described above. Overall, D-TAT-IB1(s) peptide decreased JNK-mediated phosphorylation of c-Jun, but at levels approximately 10-20 fold less efficiently than L-TAT-IB1(s).

The subject of the next experiment is βTC-3 cells. The experiment is described as follows: Inhibition of IL-1β induced pancreatic β-cell death by TAT-IB peptides. The experiment is classed as cell-based. The following applies: one single addition of peptide 1 μM, IL-1β every two days, 15 days. The procedure: We investigated the effects of the inventive L-TAT-IB(s) peptides on the promotion of β-cell apoptosis elicited by IL-1. PTC-3 cell cultures were incubated for 30 minutes with 1 μM of inventive L-TAT-IB1(s) peptides followed by 10 ng/mL of IL-1. A second addition of peptide (1 μM) was performed 24 hours later. Apoptotic cells were counted after two days of incubation with IL-1β using propidium iodide (red stained cell are dead cells) and Hoechst 33342 (blue stained cell are cells with intact plasma membrane) nuclear staining.
Long term inhibition of IL-1 induced cells death was examined by treating βTC-3 cells as described above, except that incubation of the cells with the peptides and IL-1β was sustained for 12 days. Additional peptides (1 μM) were added each day and additional IL-1β (10 ng/mL) was added every 2 days. […] Taken together, these experiments provide evidence that inventive TAT-IB(s) peptides are biologically active molecules able to prevent the effects of JNK signaling on cell fate.
Inhibition of IL-1β induced pancreatic β-cell death by the inventive D-TAT-IB1(s) peptide was analyzed. βTC-3 cells were incubated as described above for 30 minutes with one single addition of the indicated peptides (1, μM), then IL-1 (10 ng/ml) was added.
Apoptotic cells were then counted after two days of incubation with IL-1β by use of Propidium Iodide and Hoechst 33342 nuclear staining. A minimum of 1,000 cells were counted for each experiment. Standard Error of the Means (SEM) are indicated, n=5.
Long term inhibition of IL-1P induced cell-death by the D-TAT-IB1 peptide was also analyzed. βTC-3 cells were incubated as above for 30 minutes with one single addition of the indicated peptides (1 μM), then IL-1β (10 ng/ml) was added, followed by addition of the cytokine every two days. Apoptotic cells were then counted after 15 days of incubation with IL-1 by use of propidium iodide and Hoechst 33342 nuclear staining. […] A minimum of 1.000 cells were counted for each experiment.

The subject of another experiment is 12-days-old rats. Kind of experiment: Neuroprotection against focal cerebral ischemia, permanent MCAO model. It counts as in vivo. From the text: Focal cerebral ischemia was induced in 12-days-old rats. Pups were anesthetized in an induction chamber with 2% isoflurane and during the operation anaesthesia was maintained using a mask under 2% isoflurane. MCAO was induced by electrocoagulating a main branch of the middle cerebral artery (MCA). Rats were placed on the right side, and an oblique dermal incision was made between the ear and eye. After excision of the temporal muscle, the cranial bone was removed from the frontal suture to a level below the zygomatic arch. […] The cranial skin incision was then closed. Rat pups were then placed in an incubator maintained at 37° C. until they awoke, and were then transferred to their mother.
6 hours later an inventive chimeric D-TAT-IB1(s) peptide according to SEQ ID NO: 11 was injected intraperitoneally. 24 hours after the coagulation, the rats were anesthetized with chloral hydrate and perfused through the ascending aorta with 4% paraformaldehyde in PBS. Brains were then removed and kept for 2 hours in the same fixative solution, and placed in a gradient of 30% sucrose in PBS for about 15 hours at 4° C. Brains were frozen in isopentane (−40° C.) and stored at −20° C. Coronal cryostat sections of 50 μm were collected on glass slides. The sections were stained with cresyl violet. Each tenth section was analyzed and the total volume of the lesion was calculated using the Neuroleucida programme. In the control group A, the mean lesion volume was 21.47 mm^3. […] A significant statistic difference is observed between group A and groups C, E and F (one-tailed t-test, p=0.030, p=0.002, p=0.001 respectively).

In a further experiment the test system is male ICR-CD1 mice. The experiment is described as follows: Neuroprotection after iv administration against focal cerebral ischaemia, transient MCAO model. The experiment is classed as in vivo. The procedure: Transient ischemia in adult mice. Using male ICR-CD1 mice (6 weeks old; 18-37 g; Harlan), we provoked ischemia by introducing a filament from the common carotid artery into the internal carotid and advancing it into the arterial circle, thereby occluding the middle cerebral artery. We measured regional cerebral blood flow by laser Doppler flowmetry, with a probe fixed on the skull throughout the ischemia until 10 min after reperfusion. Rectal temperature was measured and maintained at 37° C. The mice were killed 48 h after reperfusion. Serial cryostat sections 20 μm thick were traced using a computer-microscope system equipped with the Neurolucida program (MicroBrightField) and the volumes of the ischemic area and of the whole brain were calculated (blinded) with the Neuroexplorer program. XG-102 0.3=0.3 mg/kg, XG-102 1=1 mg/kg, XG-102 5=5 mg/kg
The infarct volume sizes (mm^3) after bolus iv administration of placebo and XG-102 0.3, […] 6 hours after reperfusion (30 minutes clamp) in an adult mice model were as follows.

Consider `CC(C)C[C@@H](NC(=O)[C@@H](Cc1ccccc1)NC(=O)[C@H]1CCCN1C(=O)[C@@H](CCC(N)=O)NC(=O)[C@H](NC(=O)[C@H]1CCCN1C(=O)[C@@H](CCCNC(=N)N)NC(=O)[C@@H](CO)NC(=O)[C@@H](CCC(N)=O)NC(=O)[C@H](N)CC(=O)O)C(C)C)C(=O)N[C@H](CC(N)=O)C(=O)N[C@H](CC(C)C)C(=O)N[C@@H](C(=O)N[C@@H](C(=O)N1CCC[C@@H]1C(=O)N[C@H](CCCNC(=N)N)C(=O)N[C@H](CCCCN)C(=O)N1CCC[C@@H]1C(=O)N[C@H](CCCNC(=N)N)C(=O)N1CCC[C@@H]1C(=O)N1CCC[C@@H]1C(=O)N[C@H](CCCNC(=N)N)C(=O)N[C@H](CCCNC(=N)N)C(=O)N[C@H](CCCNC(=N)N)C(=O)N[C@H](CCC(N)=O)C(=O)N[C@H](CCCNC(=N)N)C(=O)N[C@H](CCCNC(=N)N)C(=O)N[C@H](CCCCN)C(=O)N[C@H](CCCCN)C(=O)N[C@H](CCCNC(=N)N)C(=O)NCC(=O)O)[C@H](C)O)[C@H](C)O` [D-TAT-IB1(s)] (H-[dD][dQ][dS][dR][dP][dV][dQ][dP][dF][dL][dN][dL][dT][dT][dP][dR][dK][dP][dR][dP][dP][dR][dR][dR][dQ][dR][dR][dK][dK][dR]G-OH), for which, in experiment [1], the “decrease of JNK-mediated phosphorylation of c-Jun, efficiency relative to L-TAT-IB1(s)” value is reported as 10-20 fold. Also, in the experiment on βTC-3 cells, the “long term (15 day) protection against IL-1β induced cell death” value was “able to confer long term (15 day) protection”. The “cerebral protection compared to saline group” value in the experiment on 12-days-old rats (dose of 1 mg/kg, 0.003 mg/kg and 0.0003) is reported as “total sample was not large enough to reach a significant difference”. Also, the cerebral protection result with 12-days-old rats (dose of 11 mg/kg, 3 mg/kg, 0.3 mg/kg and 0.03 mg/kg i.p.) was “contributes to a cerebral protection”. The “dose at which the best protection is observed” value with 12-days-old rats (i.p. 6 hours after MCAO) amounted to 0.03 mg/kg. Moreover, in the experiment on 12-days-old rats (i.p. 6 hours after MCAO, analysis at 24 hours, all treated groups), the “mean lesion volume versus control group” value is “lower mean than the control group”. Moreover, the “infarct volume sizes, moyenne” value with male ICR-CD1 mice (0.3 mg/kg bolus iv 6 hours after reperfusion (30 minutes clamp), n = 5) turned out to be 16 mm^3; in the experiment on male ICR-CD1 mice (1 mg/kg bolus iv 6 hours after reperfusion (30 minutes clamp), n = 1), 16 mm^3; in the experiment with male ICR-CD1 mice (XG102 3, bolus iv 6 hours after reperfusion (30 minutes clamp), n = 5), 15 mm^3. In addition, the neuroprotection result in the experiment with male ICR-CD1 mice (i.v. administration, mice killed 48 h after reperfusion) is “provides efficient neuroprotection”.

(Values after US8748395B2, “Cell-permeable peptide inhibitors of the JNK signal transduction pathway” (Xigen Inflammation Ltd., priority 2006, dated 2014).)
